In US12077503B2, “Substituted cyclic amides and their use as herbicides” (FMC CORPORATION, priority 2015, dated 2024):

How the values were obtained:
Format in all cases: in vivo
[1] = test system: giant foxtail (Setaria faberi); assay: Test G Post-Emergence Protocol; conditions: Setaria faberi, post-emergence, 312 h; for pest or weed control at 15.625 g/ha: 15.625 g ai/ha, evaluated after 13 days (100=total damage to plant; 0=no damage to plant), read-out: Foxtail, Giant damage rating; for pest or weed control at 62.5 g/ha: 62.5 g ai/ha, read-out: Foxtail, Giant damage rating (100=total damage to plant; 0=no damage to plant); for pest or weed control at 62.5 g/ha / pest or weed control at 250 g/ha: evaluated after 13 days; for pest or weed control at 250 g/ha: 250 g ai/ha, read-out: damage to plant, Foxtail, Giant (100=total damage to plant; 0=no damage to plant)
Procedure, shortened: (§1)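 Scores run 0 (no damage) to 100 (total damage) and were taken 13 days after spraying. Plants had been raised in pots for 8 days under glasshouse control (24/16 °C, 14 h photoperiod, 65% humidity) and then treated at 15.625, 62.5 or 250 g/ha.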

corn (Zea mays) [2] = assay: Test G Post-Emergence Protocol; conditions: Zea mays, post-emergence, 312 h; for plant injury at 15.625 g/ha: 15.625 g ai/ha, evaluated after 13 days (100=total damage to plant; 0=no damage to plant), read-out: Corn damage rating; for plant injury at 62.5 g/ha: 62.5 g ai/ha, read-out: Corn damage rating (100=total damage to plant; 0=no damage to plant); for plant injury at 62.5 g/ha / plant injury at 250 g/ha: evaluated after 13 days; for plant injury at 250 g/ha: 250 g ai/ha, read-out: damage to plant, Corn (100=total damage to plant; 0=no damage to plant)
Procedure, shortened: as §1

[3] = test system: velvetleaf (Abutilon theophrasti); assay: Test G Post-Emergence Protocol; conditions: Abutilon theophrasti, post-emergence, 312 h; for pest or weed control at 15.625 g/ha: 15.625 g ai/ha, evaluated after 13 days (100=total damage to plant; 0=no damage to plant), read-out: Velvetleaf damage rating; for pest or weed control at 62.5 g/ha: 62.5 g ai/ha, read-out: Velvetleaf damage rating (100=total damage to plant; 0=no damage to plant); for pest or weed control at 62.5 g/ha / pest or weed control at 250 g/ha: evaluated after 13 days; for pest or weed control at 250 g/ha: 250 g ai/ha, read-out: damage to plant, Velvetleaf (100=total damage to plant; 0=no damage to plant)
Procedure, shortened: as §1

[4] = test system: barnyardgrass (Echinochloa crus-galli); assay: Test G Post-Emergence Protocol; conditions: Echinochloa crus-galli, post-emergence, 312 h; for pest or weed control at 15.625 g/ha: 15.625 g ai/ha, evaluated after 13 days (100=total damage to plant; 0=no damage to plant), read-out: Barnyardgrass damage rating; for pest or weed control at 62.5 g/ha: 62.5 g ai/ha, read-out: Barnyardgrass damage rating (100=total damage to plant; 0=no damage to plant); for pest or weed control at 62.5 g/ha / pest or weed control at 250 g/ha: evaluated after 13 days; for pest or weed control at 250 g/ha: 250 g ai/ha, read-out: damage to plant, Barnyardgrass (100=total damage to plant; 0=no damage to plant)
Procedure, shortened: as §1

[5] = test system: redroot pigweed (Amaranthus retroflexus); assay: Test G Post-Emergence Protocol; conditions: Amaranthus retroflexus, post-emergence, 312 h; for pest or weed control at 15.625 g/ha: 15.625 g ai/ha, evaluated after 13 days (100=total damage to plant; 0=no damage to plant), read-out: Pigweed, Redroot damage rating; for pest or weed control at 62.5 g/ha: 62.5 g ai/ha, read-out: Pigweed, Redroot damage rating (100=total damage to plant; 0=no damage to plant); for pest or weed control at 62.5 g/ha / pest or weed control at 250 g/ha: evaluated after 13 days; for pest or weed control at 250 g/ha: 250 g ai/ha, read-out: damage to plant, Pigweed, Redroot (100=total damage to plant; 0=no damage to plant)
Procedure, shortened: as §1

[6] = test system: ivy-leaved morning glory (Ipomoea hederacea); assay: Test G Post-Emergence Protocol; conditions: Ipomoea, post-emergence, 312 h; for pest or weed control at 15.625 g/ha: 15.625 g ai/ha, evaluated after 13 days (100=total damage to plant; 0=no damage to plant), read-out: Morningglory, Ivy-leaved damage rating; for pest or weed control at 62.5 g/ha: 62.5 g ai/ha, read-out: Morningglory, Ivy-leaved damage rating (100=total damage to plant; 0=no damage to plant); for pest or weed control at 62.5 g/ha / pest or weed control at 250 g/ha: evaluated after 13 days; for pest or weed control at 250 g/ha: 250 g ai/ha, read-out: damage to plant, Morningglory, Ivy-leaved (100=total damage to plant; 0=no damage to plant)
Procedure, shortened: as §1

[7] = test system: giant foxtail (Setaria faberi); assay: Test G Pre-Emergence Protocol; conditions: Setaria faberi, pre-emergence, 312 h, evaluated after 13 days; for pest or weed control at 15.625 g/ha: 15.625 g ai/ha; for pest or weed control at 15.625 g/ha / pest or weed control at 250 g/ha: read-out: Foxtail, Giant damage rating (100=total damage to plant; 0=no damage to plant); for pest or weed control at 62.5 g/ha: 62.5 g ai/ha, 100=total damage to plant, 0=no damage to plant, read-out: plant damage rating, Foxtail, Giant; for pest or weed control at 250 g/ha: 250 g ai/ha
Procedure, shortened: (§2)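 Seeds were sown in standard soil and kept one day in a glasshouse (24/16° C day/night, 14 h light, 65% humidity), then sprayed with compound in acetone/water (50:50) containing 0.5% Tween 20 at 15.625, 62.5 or 250 g/ha. Damage was scored after 13 days (0 = none, 100 = total).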

corn (Zea mays) [8] = assay: Test G Pre-Emergence Protocol; conditions: Zea mays, pre-emergence, 312 h, evaluated after 13 days; for plant injury at 15.625 g/ha: 15.625 g ai/ha; for plant injury at 15.625 g/ha / plant injury at 250 g/ha: read-out: Corn damage rating (100=total damage to plant; 0=no damage to plant); for plant injury at 62.5 g/ha: 62.5 g ai/ha, 100=total damage to plant, 0=no damage to plant, read-out: plant damage rating, Corn; for plant injury at 250 g/ha: 250 g ai/ha
Procedure, shortened: as §2

[9] = test system: velvetleaf (Abutilon theophrasti); assay: Test G Pre-Emergence Protocol; conditions: Abutilon theophrasti, pre-emergence, 312 h, evaluated after 13 days; for pest or weed control at 15.625 g/ha: 15.625 g ai/ha; for pest or weed control at 15.625 g/ha / pest or weed control at 250 g/ha: read-out: Velvetleaf damage rating (100=total damage to plant; 0=no damage to plant); for pest or weed control at 62.5 g/ha: 62.5 g ai/ha, 100=total damage to plant, 0=no damage to plant, read-out: plant damage rating, Velvetleaf; for pest or weed control at 250 g/ha: 250 g ai/ha
Procedure, shortened: as §2

[10] = test system: barnyardgrass (Echinochloa crus-galli); assay: Test G Pre-Emergence Protocol; conditions: Echinochloa crus-galli, pre-emergence, 312 h, evaluated after 13 days; for pest or weed control at 15.625 g/ha: 15.625 g ai/ha, read-out: Barnyard grass damage rating (100=total damage to plant; 0=no damage to plant); for pest or weed control at 62.5 g/ha: 62.5 g ai/ha, 100=total damage to plant, 0=no damage to plant, read-out: plant damage rating, Barnyardgrass; for pest or weed control at 250 g/ha: 250 g ai/ha, read-out: Barnyardgrass damage rating (100=total damage to plant; 0=no damage to plant)
Procedure, shortened: as §2

[11] = test system: redroot pigweed (Amaranthus retroflexus); assay: Test G Pre-Emergence Protocol; conditions: Amaranthus retroflexus, pre-emergence, 312 h, evaluated after 13 days; for pest or weed control at 15.625 g/ha: 15.625 g ai/ha; for pest or weed control at 15.625 g/ha / pest or weed control at 250 g/ha: read-out: Pigweed, Redroot damage rating (100=total damage to plant; 0=no damage to plant); for pest or weed control at 62.5 g/ha: 62.5 g ai/ha, 100=total damage to plant, 0=no damage to plant, read-out: plant damage rating, Pigweed, Redroot; for pest or weed control at 250 g/ha: 250 g ai/ha
Procedure, shortened: as §2

[12] = test system: ivy-leaved morning glory (Ipomoea hederacea); assay: Test G Pre-Emergence Protocol; conditions: Ipomoea, pre-emergence, 312 h, evaluated after 13 days; for pest or weed control at 15.625 g/ha: 15.625 g ai/ha, read-out: Morning-glory, Ivy-leaved damage rating (100=total damage to plant; 0=no damage to plant); for pest or weed control at 62.5 g/ha: 62.5 g ai/ha, 100=total damage to plant, 0=no damage to plant, read-out: plant damage rating, Morningglory, Ivy-leaved; for pest or weed control at 250 g/ha: 250 g ai/ha, read-out: Morningglory, Ivy-leaved damage rating (100=total damage to plant; 0=no damage to plant)
Procedure, shortened: as §2

Cc1c(NC(=O)[C@@H]2C(=O)N(C)C[C@H]2c2ccc(C(F)(F)F)cc2)ccnc1Cl (racemic) [Compound 1631]
pest or weed control at 15.625 g/ha [1]: 0%
pest or weed control at 62.5 g/ha [1]: 60%
pest or weed control at 250 g/ha [1]: 70%
plant injury at 15.625 g/ha (corn (Zea mays) [2]): 0%
plant injury at 62.5 g/ha (corn (Zea mays) [2]): 0%
plant injury at 250 g/ha (corn (Zea mays) [2]): 10%
pest or weed control at 15.625 g/ha [3]: 0%
pest or weed control at 62.5 g/ha [3]: 10%
pest or weed control at 250 g/ha [3]: 0%
pest or weed control at 15.625 g/ha [4]: 0%
pest or weed control at 62.5 g/ha [4]: 10%
pest or weed control at 250 g/ha [4]: 10%
pest or weed control at 15.625 g/ha [5]: 0%
pest or weed control at 62.5 g/ha [5]: 20%
pest or weed control at 250 g/ha [5]: 20%
pest or weed control at 15.625 g/ha [6]: 0%
pest or weed control at 62.5 g/ha [6]: 20%
pest or weed control at 250 g/ha [6]: 20%
pest or weed control at 15.625 g/ha [7]: 0%
pest or weed control at 62.5 g/ha [7]: 10%
pest or weed control at 250 g/ha [7]: 70%
plant injury at 15.625 g/ha (corn (Zea mays) [8]): 0%
plant injury at 62.5 g/ha (corn (Zea mays) [8]): 10%
plant injury at 250 g/ha (corn (Zea mays) [8]): 0%
pest or weed control at 15.625 g/ha [9]: 0%
pest or weed control at 62.5 g/ha [9]: 0%
pest or weed control at 250 g/ha [9]: 0%
pest or weed control at 15.625 g/ha [10]: 0%
pest or weed control at 62.5 g/ha [10]: 0%
pest or weed control at 250 g/ha [10]: 0%
pest or weed control at 15.625 g/ha [11]: 0%
pest or weed control at 62.5 g/ha [11]: 20%
pest or weed control at 250 g/ha [11]: 10%
pest or weed control at 15.625 g/ha [12]: 0%
pest or weed control at 62.5 g/ha [12]: 20%
pest or weed control at 250 g/ha [12]: 30%

CN1C[C@H](c2ccc(C(F)(F)F)cc2)[C@](C)(C(=O)Nc2cccc(F)c2F)C1=O (racemic) [Compound 1406]
pest or weed control at 15.625 g/ha [1]: 0%
pest or weed control at 62.5 g/ha [1]: 0%
pest or weed control at 250 g/ha [1]: 0%
plant injury at 15.625 g/ha (corn (Zea mays) [2]): 20%
plant injury at 62.5 g/ha (corn (Zea mays) [2]): 0%
plant injury at 250 g/ha (corn (Zea mays) [2]): 10%
pest or weed control at 15.625 g/ha [3]: 0%
pest or weed control at 62.5 g/ha [3]: 20%
pest or weed control at 250 g/ha [3]: 20%
pest or weed control at 15.625 g/ha [4]: 0%
pest or weed control at 62.5 g/ha [4]: 0%
pest or weed control at 250 g/ha [4]: 20%
pest or weed control at 15.625 g/ha [5]: 0%
pest or weed control at 62.5 g/ha [5]: 40%
pest or weed control at 250 g/ha [5]: 20%
pest or weed control at 15.625 g/ha [6]: 0%
pest or weed control at 62.5 g/ha [6]: 10%
pest or weed control at 250 g/ha [6]: 0%
pest or weed control at 15.625 g/ha [7]: 0%
pest or weed control at 62.5 g/ha [7]: 0%
pest or weed control at 250 g/ha [7]: 0%
plant injury at 15.625 g/ha (corn (Zea mays) [8]): 0%
plant injury at 62.5 g/ha (corn (Zea mays) [8]): 0%
plant injury at 250 g/ha (corn (Zea mays) [8]): 0%
pest or weed control at 15.625 g/ha [9]: 0%
pest or weed control at 62.5 g/ha [9]: 0%
pest or weed control at 250 g/ha [9]: 0%
pest or weed control at 15.625 g/ha [10]: 0%
pest or weed control at 62.5 g/ha [10]: 0%
pest or weed control at 250 g/ha [10]: 0%
pest or weed control at 15.625 g/ha [11]: 0%
pest or weed control at 62.5 g/ha [11]: 0%
pest or weed control at 250 g/ha [11]: 0%
pest or weed control at 15.625 g/ha [12]: 0%
pest or weed control at 62.5 g/ha [12]: 0%
pest or weed control at 250 g/ha [12]: 0%
